These are literature values, as cited in patent US20090099261A1, “Omega-3 mixtures” (ISI Brands Inc., priority 2007, published 2009).

The conditions of the data set: dietary intake; Michael J. James et al., Am. J. Clin. Nutr. 77:1140-45 (2003).

Consider `CC/C=C\C/C=C\C/C=C\CCCCCCCC(=O)O` [LNA, Linolenic acid], for which the “share of dietary fatty acid converted to EPA” value is recorded as at most 10%.
For the compound `CC/C=C\C/C=C\C/C=C\C/C=C\CCCCC(=O)O` [SA, stearidonic acid], the “share of dietary fatty acid converted to EPA” value is listed as 40%.
